According to PMC7756445, “A Novel Prodrug of a nNOS Inhibitor with Improved Pharmacokinetic Potential” (Chemmedchem, 2020):

What was measured:
PAMPA-BBB assay = assay: PAMPA-BBB assay; set-up: Papp at 18 h: dose or concentration left out as unconfirmed; details: porcine polar brain lipid, 18 h
Procedure: The relative passive transcellular diffusion of compounds, expressed as permeability coefficient (Pe), was determined with a permeability equation. ^[45] The permeabilities of 1, 2, and 1400 W were determined at pH 5.0, 6.5, and 7.4 to mimic the physiological conditions of the GI tract (Table 1). […] As the new prodrug was designed for the potential treatment of neurodegenerative diseases, an important parameter is its capability to cross the BBB.
PAMPA‐BBB assays were performed following the same procedure described above for PAMPA‐GI. Briefly, an artificial membrane consisting in a porcine polar brain lipid extract mixture (purchased from Avantis Polar Lipids, Alabaster, AL, USA) and an incubation time of 18 h were adopted as experimental conditions.

pepsin, pancreatin = assay: Enzymatic stability in simulated fluids with pepsin or pancreatin; assay type: in vitro ADME; details: 37 °C, 2 h
Procedure: The effects of gastrointestinal digestion are important parameters to be taken into consideration in the determination of bioavailability and bioactivity of new compounds. In particular, the luminal instability, due to the pH or enzymatic degradation, may compromise the transmucosal transport of the prodrug designed for permeability enhancement. Therefore, in this study the chemical stability of compound 2 was assessed to exclude any undesirable degradation at acid and physiological environments. Hydrochloric acid buffer (pH 2.0) as a nonenzymatic simulated gastric fluid (SGF), and phosphate buffer (pH 7.4) as nonenzymatic simulated intestinal fluid (SIF) were employed to evaluate the chemical stability. […] For chemical stability, a 0.01 M hydrochloric acid buffer (pH 1.3) and 0.01 M phosphate buffer (pH 7.4) were used. To assess enzymatic stability, the same hydrochloric buffer with and without pepsin (10 or 40 mg/mL) and phosphate buffer with and without pancreatin (10 or 40 mg/mL) were used. […] The mixture was vortexed and centrifuged at 2 °C and 10 000 rpm, Swing‐out Rotor, for 10 min, and the content of tested compound in the supernatant was analyzed by HPLC. Experiments were run in triplicate and the mean values of the rate constants were calculated.

[1] = Stability in human plasma; assay type: in vitro ADME; details: 37 °C
Procedure: Finally, the stability in human plasma was assessed.
Human plasma was purchased from 3H Biomedical (Uppsala, Sweden). For the determination of enzymatic stability in human plasma, the reactions were initiated by adding 50 μL of compound stock solution to 450 μL of pre‐heated plasma, and incubated at 37±0.5 °C. At appropriate time intervals, 50 μL of the plasma were taken and deproteinized by the addition of 450 μL of CH3CN. After mixing and centrifugation for 10 min at 10 000 rpm, the supernatant (5 μL) was analyzed by HPLC, adopting the same chromatographic conditions described for chemical stability evaluations. ^[48]

mARC1 = molecular target: T1, mARC1 (Homo sapiens, UniProt Q5VT66); assay: Bioconversion with the mARC enzyme system (UV/Vis NADH assay, LC-MS); assay type: in vitro ADME; details: for conversion to reduced amidine 1 (LC-MS): mARC1 incubation
T1 sequence (Q5VT66 41-337 limits assumed): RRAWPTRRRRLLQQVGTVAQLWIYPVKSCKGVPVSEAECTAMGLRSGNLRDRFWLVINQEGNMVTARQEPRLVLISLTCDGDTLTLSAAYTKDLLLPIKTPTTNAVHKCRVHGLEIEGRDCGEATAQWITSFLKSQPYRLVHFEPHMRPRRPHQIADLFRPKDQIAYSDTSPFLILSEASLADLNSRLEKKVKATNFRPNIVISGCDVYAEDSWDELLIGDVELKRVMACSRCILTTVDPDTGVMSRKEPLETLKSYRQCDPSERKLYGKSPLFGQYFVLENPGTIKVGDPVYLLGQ
Procedure: (§1) The turnover rate of the amidoxime 2 was tested by an enzymatic NADH assay ^[38] with the mARC enzyme system in comparison to the model substrate benzamidoxime (BAO).
(§2) Due to this known in vivo studies and to other known prodrugs which are activated by mARC, for example, upamostat and ximelagatran, ^[38] it can be expected that the amidoxime prodrug 2 will also be converted extensively in vivo, and is thus a very suitable prodrug for the amidine 1 and making it orally available.
(§3) The assay was performed as previously described. ^[38] The proteins were dissolved in 20 mM of 2‐(N‐morpholino)ethanesulfonic acid (MES) buffer (pH 6.0) in disposable micro UV cuvettes. Each batch contained 15 μg human mARC, 7 μg B5 and 0.16 μg B5R. The enzymes were preincubated with the respective substrate (concentration 3 mM) for 3 min at 37 °C (total volume 240 μL). This mixture was measured as blank value and immediately mixed with 60 μL NADH (concentration 1 mM). The kinetics were measured over a period of 15 min at 37 °C, with absorption between 300 and 400 nm being measured at intervals of 30 sec. The measurement was stopped when the absorption stopped changing. The measurements were taken with a Varian Cary® 50 UV/Vis spectrophotometer from Agilent, which was tempered with a Varian Cary® PCB‐150 Peltier Controlled Cryobath. The samples were mixed with cold methanol and centrifuged for 5 min at 10 000 rpm, Swing‐out Rotor, and stored at −80 °C for further analysis.
(§4) A Bruker Amazon SL Ion Trap with upstream Agilent 1260 HPLC system was used with a Waters Xterra MS C8, 4.6×50 mm, 3.5 μm column, with Phenomenex, Security Guard C18 precolumn 3×4 mm. A gradient was employed with eluent A: 0.1 % acetic acid Suprapur, Merck, in Aqua Bidest, eluent B: CH3CN, Sigma Aldrich Chromasolv for gradient HPLC. The gradient was changed from 97 % A to 100 % B within 10 min. The injection volume was 1 μL and 10 μL respectively. The column temperature was 20 °C. Software of the HPLC: Hystar 3.2 SR 2. Software to control the mass spectrometer: Bruker Trap Control 7.0 Software to evaluate the data: Bruker Data Analysis 4.0.

mARC2 = molecular target: T2, mARC2 (Homo sapiens, UniProt Q969Z3); assay: as above; assay type: in vitro ADME; details: for conversion to reduced amidine 1 (LC-MS): mARC2 incubation
T2 sequence (Q969Z3 36-335): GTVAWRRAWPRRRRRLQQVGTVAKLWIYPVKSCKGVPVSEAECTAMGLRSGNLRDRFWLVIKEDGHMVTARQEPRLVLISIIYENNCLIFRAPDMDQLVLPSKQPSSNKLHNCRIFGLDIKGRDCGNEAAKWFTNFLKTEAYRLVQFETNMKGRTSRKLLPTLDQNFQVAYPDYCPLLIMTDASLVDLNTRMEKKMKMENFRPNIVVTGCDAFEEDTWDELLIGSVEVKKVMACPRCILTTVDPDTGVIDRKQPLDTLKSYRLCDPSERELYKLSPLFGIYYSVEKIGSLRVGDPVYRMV
Procedure: as §1, §2, §3, §4

## C/C(=N\O)NC(c1ccccc1)c1ccccc1 [Compound 2, (1E)‐N‐(diphenylmethyl)‐N′‐hydroxyethanimidamide]
PAMPA-BBB assay; pig, PAMPA, PAMPA-BBB permeability Pe
  Papp at 18 h: > 40 nm/s
PAMPA-BBB assay
  PAMPA-BBB permeation class: CNS+ (CNS+ (indicative of high BBB permeation): Pe >4.0)
pepsin, pancreatin; pH 1.3, pepsin 10 or 40 mg/mL
  enzymatic stability in SGF with pepsin: stable
pepsin, pancreatin; pH 7.4, pancreatin 10 or 40 mg/mL
  enzymatic stability in SIF with pancreatin: stable
[1]
  stability in human plasma: stable
mARC1
  conversion to reduced amidine 1 (LC-MS): could be found
mARC1; listed as amidoxime
  conversion to reduced amidine 1 (LC-MS): completely converted
mARC1; mARC1 with B5 and B5R, substrate 3 mM, pH 6.0, 37 °C
  turnover rate (NADH consumption) compared with BAO: clearly identical
mARC2
  conversion to reduced amidine 1 (LC-MS): could be found
mARC2; listed as amidoxime
  conversion to reduced amidine 1 (LC-MS): completely converted
mARC2; mARC2 with B5 and B5R, substrate 3 mM, pH 6.0, 37 °C
  turnover rate (NADH consumption) compared with BAO: very similar
other
  melting point: 112 to 115 °C
